According to PMC8126888 (RSC Medicinal Chemistry, 2020):
Like-named read-outs stand apart in the source and are kept apart here.

Key:
[1] = test system: primary peritoneal mouse macrophages (PMM); experiment: cells; conditions: Macrophage
[2] = in vitro; conditions: human, microsomes
[3] = in vitro; conditions: mouse, microsomes; for microsomal CLint at 0.5 μM: pH 7.4, MLM CLint (uL/min/mg), mouse liver microsomes; for microsomal CLint at 0.5 h, 0.5 µM: intrinsic in vitro clearance, liver microsomes
[4] = in vitro; conditions: human; for CC50 at 120 h: THP-1 cells differentiated with PMA; for IC50 at 120 h: PMA-differentiated THP-1 cells
[5] = in vitro; conditions: human
[6] = in vitro; conditions: human, HFF-1 cells
[7] = in vitro; conditions: human, HepG2 cells
[8] = in vitro; conditions: PAMPA
[9] = test system: Leishmania infantum MHOM/MA(BE)/67/ITMAP263 intracellular amastigotes; experiment: microbe, parasite or virus in culture; conditions: Macrophage, in Mus musculus
[10] = test system: Leishmania infantum (MHOM/MA/67/ITMAP-263) intracellular amastigotes in THP-1; experiment: microbe, parasite or virus in culture
[11] = test system: Trypanosoma cruzi, Tulahuen CL2, beta-galactosidase strain; experiment: microbe, parasite or virus in culture; conditions: MRC5, read-out: T. cruzi Tulahuen C4 (LacZ) IC50 (uM)
[12] = physchem; conditions: HPLC, Ascentis Express RP Amide column
[13] = test system: Leishmania infantum MHOM/MA(BE)/67/ITMAP263 intracellular amastigotes; conditions: for potency against L. inf. in words: intracellular amastigotes in PMM
[14] = pH 7.4, HLM CLint (uL/min/mg), human liver microsomes
[15] = read-out: L. Inf. pIC50, from L. infantum intracellular amastigote IC50 (converted)
[16] = read-out: L. infantum MHOM/MA(BE)/67/ITMAP263 intracellular amastigotes IC50 (uM), intracellular amastigotes
[17] = THP-1, read-out: L. infantum MHOM/MA/67/ITMAP263 intracellular amastigotes THP-1 cells IC50 (uM)
[18] = read-out: PMM pIC50 (converted)
[19] = pH 7.4, Microsome Clint Human, intrinsic in vitro clearance, liver microsomes
[20] = pH 7.4, elog D, HPLC measured log D, pH 7.4
[21] = read-out: L. inf. pIC50, intracellular amastigotes in PMM (converted), geometric mean of a minimum of two experiments ± standard error
[22] = THP-1, 120 h, read-out: Intracellular activity pIC50 L. inf. in THP-1 (converted)
[23] = pH 7.4, Microsome Clint,u Human, Table 2, intrinsic in vitro clearance, liver microsomes
[24] = reference drug in the intracellular Leishmania amastigote assay

Row | Compound | IC50 ([1]; read-out: PMM IC50 (uM)) [µM] | microsomal CLint at 0.5 μM [2, 14] [µL/min/mg] | microsomal CLint at 0.5 μM [3] [µL/min/mg] | CC50 at 120 h [4] [µM] | CC50 at 3 days [5] [µM] | CC50 [6] [µM] | CC50 [7] [µM] | Papp [8] [×10⁻⁶ cm/s] | IC50 [9, 15] [µM] | IC50 [9, 16] [µM] | IC50 [10, 17] [µM] | IC50 [11] [µM] | IC50 [1, 18] [µM] | chromatographic logD [12, 20] | IC50 at 120 h [4] [µM] | IC50 [9, 21] [µM] | IC50 [10, 22] [µM] | other results
1 | COc1ccc(C(=O)N2CCOCC2)cc1S(=O)(=O)N(Cc1ccc(C(F)(F)F)nc1)CC(C)(C)C [DNDI0003407906] | > 64 | 127 | 262 | > 64 | > 64 | > 64 | > 64 | 15.7 | 45.7 | 45.2 | > 64 | 35.6 |  |  |  |  |  | 
2 | NS(=O)(=O)c1cc2c(cc1Cl)NCN(Cc1ccccc1)S2(=O)=O [DNDI0003392143] | > 64 | 21 | 164 | > 64 | > 64 | > 64 | > 64 | 2.83 | 57.5 | 57 | > 64 | 27.2 |  |  |  |  |  | chromatographic logD ([12]; pH 7.4, eLogD, experimental): 2.3
3 | COc1ccc(S(C)(=O)=O)cc1S(=O)(=O)N(Cc1ccc(F)cc1)Cc1ccc(F)cc1 [Compound 26] |  |  |  |  |  |  |  |  |  |  |  |  | > 64.6 | 3.9 | > 64.6 | 1.29 | 5.89 | microsomal CLint at 0.5 μM [2, 19]: 296 µL/min/mg
4 | COCCOCN1CNc2cc(OC)c(S(=O)(=O)N(Cc3ccccc3)Cc3ccccc3)cc2S1(=O)=O [DNDI0003425511] | > 64 | 460 | 976 | 40.2 | > 64 | > 64 | 52 | 0.92 | 0.661 | 0.65 | 14.8 | 61.7 |  |  |  |  |  | 
5 | COc1ccc(C(=O)N2CCOCC2)cc1S(=O)(=O)N(Cc1ccc(C(F)(F)F)nc1)CC(C)(C)C [Compound 48] |  |  |  |  |  |  |  |  |  |  |  |  | > 64.6 |  | > 64.6 | 45.7 | > 64.6 | potency against L. inf. in words [13]: inactive; microsomal CLint at 0.5 h, 0.5 µM [2, 23]: 143 µL/min/mg; microsomal CLint at 0.5 h, 0.5 µM ([3]; pH 7.4, Microsome Clint,u Mouse, Table 2): 379 µL/min/mg
6 | CCCCCCCCCCCCCCCCOP(=O)([O-])OCC[N+](C)(C)C [Miltefosine, reference compound] |  |  |  |  |  |  |  |  |  |  |  |  |  |  |  | 8.71 | 1.95 | IC50 [13, 24]: ~5 µM; IC50 [9, 24]: 5 to 10 µM
7 | COCCOCN1CNc2cc(OC)c(S(=O)(=O)N(Cc3ccccc3)Cc3ccccc3)cc2S1(=O)=O [Compound 29] |  |  |  |  |  |  |  |  |  |  |  |  | > 64.6 | 4 | 39.8 | 0.661 | 14.8 | potency against L. inf. in words [13]: sub-micromolar potency; microsomal CLint at 0.5 h, 0.5 µM [2, 19]: 518 µL/min/mg; microsomal CLint at 0.5 h, 0.5 µM ([3]; pH 7.4, Microsome Clint Mouse): 1370 µL/min/mg
8 | O=S1(=O)NCNc2cc(Cl)c(S(=O)(=O)N(Cc3ccccc3)Cc3ccccc3)cc21 [DNDI0003425512] | 32 | 63 |  | 52.4 | 25 | 29.5 | > 64 | 0.04 | 1.29 | 1.28 | 24.9 | 9.14 |  |  |  |  |  | chromatographic logD ([12]; pH 7.4, eLogD, experimental): 4.2
9 | COc1ccc(C#N)cc1S(=O)(=O)N(Cc1ccccc1)Cc1cnc(C(F)(F)F)nc1 [Compound 49] |  |  |  |  |  |  |  |  |  |  |  |  | > 64.6 | 3.8 | > 64.6 | 3.89 | 61.7 | microsomal CLint at 0.5 μM [2, 23]: 100 µL/min/mg
10 | C[C@@H]1[C@H](O)[C@@H](C)/C=C/C=C/C=C/C=C/C=C/C=C/C=C/[C@H](O[C@@H]2O[C@H](C)[C@@H](O)[C@H](N)[C@@H]2O)C[C@@H]2O[C@](O)(C[C@@H](O)C[C@@H](O)[C@H](O)CC[C@@H](O)C[C@@H](O)CC(=O)O[C@H]1C)C[C@H](O)[C@H]2C(=O)O [Amphotericin B, reference compound] |  |  |  |  |  |  |  |  |  |  |  |  |  |  |  |  | 1.95 | 
